Consider 5 molecules from DBAASP.

Structures are written as SMILES. ≈ marks a conversion by molar mass, not a printed value. Where “and” joins values, the source holds several entries; their conditions need not be identical. Equal entries are not always repeated.

Some test systems named below: Escherichia coli D21; Acinetobacter baumannii; Escherichia coli O29.
Experiment in all cases: ≥ marks a high value that may be exact or a test limit, other limits are often not marked, values filed in µg/mL are converted to µM
Assay [1] deals with Actinomyces israelii ATCC 12102.
In assay [2] the test system is Bacillus subtilis KCTC 3068.
The test system of assay [3] is Candida albicans ATCC 26790.
Assay [4] concerns Enterococcus faecalis ATCC 51299.
The test system of assay [5] is Enterococcus faecium ATCC 51559.
Assay [6] concerns Escherichia coli KCTC 1682.
In assay [7] the test system is Fusobacterium nucleatum NCTC 11326.
Assay [8] relates to Porphyromonas gingivalis ATCC 33277.
Assay [9] has as its system Pseudomonas aeruginosa CCARM 2095.
Assay [10] relates to Pseudomonas aeruginosa CCARM 2109.
Assay [11] deals with Pseudomonas aeruginosa KCTC 1637.
Assay [12] deals with Salmonella typhimurium KCTC 1926.
Assay [13] has as its system Staphylococcus aureus CCARM 3089.
Assay [14] deals with Staphylococcus aureus CCARM 3090.
Assay [15] concerns Staphylococcus aureus CCARM 3095.
For assay [16], the system named is Staphylococcus epidermidis KCTC 1917.
Assay [17] has as its system Streptococcus mutans ATCC 25175.
In assay [18] the test system is Bacillus anthracis Sterne 34F2.
Assay [19] relates to Bacillus subtilis ATCC 9372.
The subject of assay [20] is Burkholderia thailandensis.
The subject of assay [21] is Pseudomonas aeruginosa CCARM 2092.
Assay [22] deals with Staphylococcus aureus CCARM 3001.
Assay [23] concerns Staphylococcus aureus CCARM 3543.
The test system of assay [24] is Staphylococcus aureus KCTC 1621.
Assay [25] relates to Acinetobacter baumannii ATCC 19606.
Assay [26] concerns Aspergillus fumigatus ATCC 26430.
For assay [27], the system named is Candida albicans ATCC 10231.
Assay [28] concerns Enterobacter cloacae ATCC 49141.
The subject of assay [29] is Enterococcus faecalis ATCC 19433.
The subject of assay [30] is Escherichia coli ATCC 25922.
The subject of assay [31] is Pseudomonas aeruginosa ATCC 27853.
For assay [32], the system named is Staphylococcus aureus II ATCC 6538P.
Assay [33] has as its system Enterococcus faecium ATCC 35667.
Assay [34] concerns Escherichia coli CGSC 5167.
Assay [35] relates to Klebsiella pneumoniae ATCC 13883.
Assay [36] has as its system Klebsiella pneumoniae ATCC 700603.
Assay [37] concerns Pseudomonas aeruginosa ATCC 10145.
Assay [38] relates to Staphylococcus aureus ATCC 25923.
For assay [39], the system named is Staphylococcus aureus ATCC 33591.
The test system of assay [40] is Streptococcus pneumoniae ATCC 33400.
Assay [41] concerns Streptococcus pneumoniae ATCC 700677.
Assay [42] concerns Candida albicans ATCC 14053.
Assay [43] concerns Staphylococcus aureus mprF.
Assay [44] concerns Streptococcus pyogenes NZ131.

The term MIC denotes the least concentration at which growth counts as inhibited. A higher MIC goes with weaker potency. For the molecule `CC[C@H](C)[C@H](NC(=O)[C@H](CC(C)C)NC(=O)[C@H](CCCCN)NC(=O)[C@@H](NC(=O)[C@@H](NC(=O)[C@H](CCCN=C(N)N)NC(=O)[C@@H](N)CCCCN)[C@@H](C)CC)C(C)C)C(=O)N[C@@H](CC(C)C)C(=O)N[C@@H](CCCCN)C(=O)N[C@@H](Cc1c[nH]c2ccccc12)C(=O)N[C@@H](CC(C)C)C(=O)N[C@@H](CCCN=C(N)N)C(N)=O` [KRIVKLILKWLR], the MIC in assay [1] was 2.5 µM (≈ 3.91 µg/mL); in [2], 5.66 µM (≈ 8.85 µg/mL); in assay [3], 9.97 µM (≈ 15.6 µg/mL); in assay [4], at least 39.9 µM; in [5], 4 µM (≈ 6.26 µg/mL); in assay [6], 8 µM (≈ 12.5 µg/mL). Besides, the MIC is 4.99 µM (≈ 7.81 µg/mL) in [7]; 2.5 µM (≈ 3.91 µg/mL) in assay [8]; 16 µM (≈ 25 µg/mL) in assay [9]; 8 µM (≈ 12.5 µg/mL) in assay [10]; 8 µM (≈ 12.5 µg/mL) in assay [11]; 2.83 µM (≈ 4.43 µg/mL) in assay [12]. Further, the MIC in assay [13] worked out at 4 µM (≈ 6.26 µg/mL); in [14], 8 µM (≈ 12.5 µg/mL); in assay [15], 4 µM (≈ 6.26 µg/mL); in assay [16], 2 µM (≈ 3.13 µg/mL); in [17] it was 2.5 µM (≈ 3.91 µg/mL).

As for `CC(C)[C@H](NC(=O)[C@H](CCCCN)NC(=O)[C@H](CCCN=C(N)N)NC(=O)[C@H](CCCCN)NC(=O)[C@H](CCCCN)NC(=O)[C@H](CCCCN)NC(=O)[C@@H]1CCCN1C(=O)[C@H](CCC(N)=O)NC(=O)[C@H](CO)NC(=O)[C@H](Cc1c[nH]c2ccccc12)NC(=O)[C@H](CCCCN)NC(=O)[C@@H](NC(=O)[C@H](Cc1c[nH]c2ccccc12)NC(=O)[C@H](Cc1c[nH]c2ccccc12)NC(=O)[C@@H](NC(=O)[C@H](CCCCN)NC(=O)[C@H](Cc1c[nH]c2ccccc12)NC(=O)[C@H](Cc1c[nH]c2ccccc12)NC(=O)[C@@H](NC(=O)[C@H](CCCCN)NC(=O)[C@@H](N)CCCCN)[C@@H](C)O)[C@@H](C)O)[C@@H](C)O)C(=O)O` [KKTWWKTWWTKWSQPKKKRKV], the MIC in [18] was at least 59 µM; in assay [19] it was 3.3 µM (≈ 9.39 µg/mL); in [2], 2 µM (≈ 5.69 µg/mL); in assay [20] it was at least 100 µM; in assay [6], 2 µM (≈ 5.69 µg/mL); in [21], 8 µM (≈ 22.8 µg/mL). Further, the MIC in assay [9] is 8 µM (≈ 22.8 µg/mL); in assay [10], 8 µM (≈ 22.8 µg/mL); in assay [11] it was 2.83 µM (≈ 8.05 µg/mL); in assay [12], 1.41 µM (≈ 4.02 µg/mL); in assay [22], 2 µM (≈ 5.69 µg/mL); in assay [13], 2 µM (≈ 5.69 µg/mL). The MIC is 1 µM (≈ 2.85 µg/mL) in assay [23], 2 µM (≈ 5.69 µg/mL) in [24] and 1.41 µM (≈ 4.02 µg/mL) in assay [16].

With `CC(C)C[C@H](NC(=O)[C@H](Cc1cnc[nH]1)NC(=O)[C@H](CCCCN)NC(=O)[C@H](CC(C)C)NC(=O)[C@H](CC(C)C)NC(=O)[C@H](Cc1cnc[nH]1)NC(=O)[C@H](CCCCN)NC(=O)[C@H](CC(C)C)NC(=O)[C@H](CC(C)C)NC(=O)[C@H](Cc1cnc[nH]1)NC(=O)[C@H](CCCCN)NC(=O)[C@H](CC(C)C)NC(=O)[C@H](C)NC(=O)[C@H](CC(=O)O)NC(=O)[C@@H](N)CC(=O)O)C(=O)O` [DDALKHLLKHLLKHL], the MIC in assay [25] is 50 µM (≈ 89.7 µg/mL); in assay [26], 12.5 µM and 25 µM; in assay [27], 12.5 µM (≈ 22.4 µg/mL); in assay [28], at least 100 µM; in [29], 25 µM (≈ 44.9 µg/mL); in assay [30], 100 µM (≈ 179 µg/mL). Besides, the MIC in the assay with Escherichia coli D21 was at least 50 µM; in assay [31], 50 µM (≈ 89.7 µg/mL); in assay [32], 25 µM and 22 µM.

Take `CC[C@H](C)[C@H](NC(=O)[C@H](CCCN=C(N)N)NC(=O)[C@H](CCCN=C(N)N)NC(=O)[C@H](Cc1ccccc1)NC(=O)[C@H](CC(C)C)NC(=O)[C@H](CCCN=C(N)N)NC(=O)[C@@H](N)CCCN=C(N)N)C(=O)N[C@@H](CC(C)C)C(=O)N[C@@H](CCCN=C(N)N)C(=O)N[C@@H](Cc1ccc(O)cc1)C(=O)N[C@@H](CC(C)C)C(N)=O` [RRLFRRILRYL]: the MIC in [33] is 4 µM (≈ 6.24 µg/mL); in assay [5], 2 µM (≈ 3.12 µg/mL); in [30] it was 0.9 µM (≈ 1.4 µg/mL); in [34] it was 0.4 µM (≈ 0.624 µg/mL); in assay [35], 0.3 µM (≈ 0.468 µg/mL); in [36], 0.6 µM (≈ 0.937 µg/mL). The MIC in assay [37] amounted to 2 µM (≈ 3.12 µg/mL); in assay [31], 1.5 µM (≈ 2.34 µg/mL); in assay [38], 6 µM (≈ 9.37 µg/mL); in assay [39], 3 µM (≈ 4.68 µg/mL); in [40], 5 µM (≈ 7.8 µg/mL); in assay [41], 4 µM (≈ 6.24 µg/mL).

In the case of `CC[C@H](C)[C@H](NC(=O)[C@H](CCCN=C(N)N)NC(=O)[C@H](CCC(N)=O)NC(=O)[C@@H](NC(=O)[C@@H](NC(=O)[C@H](CCCN=C(N)N)NC(=O)[C@@H](N)CCCCN)[C@@H](C)CC)C(C)C)C(=O)N[C@@H](CCCCN)C(=O)N[C@@H](CC(=O)O)C(=O)N[C@@H](Cc1ccccc1)C(=O)N[C@@H](CC(C)C)C(=O)N[C@@H](CCCN=C(N)N)C(=O)N[C@@H](CC(N)=O)C(=O)N[C@@H](CC(C)C)C(=O)N[C@H](C(=O)N1CCC[C@H]1C(=O)N[C@@H](CCCN=C(N)N)C(=O)N[C@H](C(=O)N[C@@H](CCC(=O)O)C(=O)N[C@@H](CO)C(=O)O)[C@@H](C)O)C(C)C` [KRIVQRIKDFLRNLVPRTES], the minimum inhibitory concentration (MIC) in assay [25] was 25.9 µM (≈ 64 µg/mL); against Acinetobacter baumannii it was 9.16 µM (≈ 22.6 µg/mL); in assay [42], 10 µM (≈ 24.7 µg/mL); with Escherichia coli O29, at least 64 µM; in assay [38], over 64 µM; in assay [43], 16 µM (≈ 39.5 µg/mL). In addition, the MIC in [44] turned out to be 4 µM (≈ 9.88 µg/mL).
